What follows are compounds tested against T1, H. sapiens SLC2A9 variant 2 (GLUT9B) (Homo sapiens, UniProt Q9NRM0) (assay: GLUT9 functional assay: uric acid uptake in HEK293T cells, allantoin formation by MS/MS as proxy of GLUT9B inhibition). Settings: 15 minute assay; HEK293T cells stably expressing GLUT9B and transiently A. oryzae uricase; uric acid 0.3 mM, 37° C.; read-out: 15 min IC50.
T1 sequence (Q9NRM0 1-511 isoform Q9NRM0-2): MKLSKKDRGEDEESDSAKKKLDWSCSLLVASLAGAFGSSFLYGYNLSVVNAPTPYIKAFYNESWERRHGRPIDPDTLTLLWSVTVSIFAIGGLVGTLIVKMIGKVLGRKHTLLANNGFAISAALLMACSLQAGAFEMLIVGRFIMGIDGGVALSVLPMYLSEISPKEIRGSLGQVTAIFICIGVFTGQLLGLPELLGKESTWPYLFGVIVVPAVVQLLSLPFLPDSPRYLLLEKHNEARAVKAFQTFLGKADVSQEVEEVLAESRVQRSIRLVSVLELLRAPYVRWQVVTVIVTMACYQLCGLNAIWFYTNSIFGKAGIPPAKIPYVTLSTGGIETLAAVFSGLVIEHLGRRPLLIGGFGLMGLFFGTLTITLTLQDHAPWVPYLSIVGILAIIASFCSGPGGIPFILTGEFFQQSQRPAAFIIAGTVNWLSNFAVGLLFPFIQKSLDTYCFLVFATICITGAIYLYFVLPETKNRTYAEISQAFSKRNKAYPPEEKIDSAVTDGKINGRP
Assay type: cell-based
Procedure, shortened: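 Inhibition of GLUT9B-mediated urate uptake read as reduced allantoin formation, measured by MS/MS against allantoin standards in HEK293T matrix with log-logistic fitting. Stable GLUT9B HEK293T cells carrying transfected A. oryzae uricase were incubated 15 or 60 min at 37° C with uric acid at Km (0.3 mM), pH 7.4 gluconate buffer.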
In the case of `O=C(O)C1CC2(CCN(c3nc(CCC(F)(F)F)cnc3-c3cc(F)c4occc4c3)CC2)C1` [Compound 95, 7-(3-(7-fluorobenzofuran-5-yl)-6-(3,3,3-trifluoropropyl)pyrazin-2-yl)-7-azaspiro[3.5]nonane-2-carboxylic acid], the IC50 is reported as under 500 nM.
Work on `COCCOc1ccc(-c2ncc(CCC(F)(F)F)nc2N2CCC(C(=O)O)CC2)cn1` [Compound 97, 1-(3-(6-(2-methoxyethoxy)pyridin-3-yl)-6-(3,3,3-trifluoropropyl)pyrazin-2-yl)piperidine-4-carboxylic acid] yielded an IC50 of over 2000 nM.
`COCCOc1ncc(-c2ncc(CCC(F)(F)F)nc2N2CCC(C(=O)O)CC2)cc1F` [Compound 98, 1-(3-(5-fluoro-6-(2-methoxyethoxy)pyridin-3-yl)-6-(3,3,3-trifluoropropyl)pyrazin-2-yl)piperidine-4-carboxylic acid] showed an IC50 of over 2000 nM.
`O=C(O)C1CCN(c2nc(CCC(F)(F)F)cnc2-c2ccc(OCCO)cc2)CC1` [Compound 99, 1-(3-(4-(2-hydroxyethoxy)phenyl)-6-(3,3,3-trifluoropropyl)pyrazin-2-yl)piperidine-4-carboxylic acid] gave an IC50 of over 2000 nM.
`COc1ccc(-c2ncc(CCC(F)(F)F)nc2N2CCC(OCC(=O)O)CC2)cc1` [Compound 100, 2-((1-(3-(4-methoxyphenyl)-6-(3,3,3-trifluoropropyl)pyrazin-2-yl)piperidin-4-yl)oxy)acetic acid] showed an IC50 of under 500 nM.
`O=C(O)CC1CC2(C1)CN(c1nc(CCC(F)(F)F)cnc1-c1ccc3occc3c1)C2` [Compound 101, 2-(2-(3-(benzofuran-5-yl)-6-(3,3,3-trifluoropropyl)pyrazin-2-yl)-2-azaspiro[3.3]heptan-6-yl)acetic acid] gave an IC50 of over 2000 nM.
In the case of `O=C(O)C1C[C@@H]2CN(c3nc(CCC(F)(F)F)cnc3-c3ccc4occc4c3)C[C@@H]2C1` (stereo partly drawn) [Compound 102, (3aR,6aS)-2-(3-(benzofuran-5-yl)-6-(3,3,3-trifluoropropyl)pyrazin-2-yl)octahydrocyclopenta[c]pyrrole-5-carboxylic acid], the IC50 is reported as 500 to 2000 nM.
`COCCNc1ccc(-c2ncc(CCC(F)(F)F)nc2N2CCC(C(=O)O)CC2)cc1` [Compound 103, 1-(3-(4-((2-methoxyethyl)amino)phenyl)-6-(3,3,3-trifluoropropyl)pyrazin-2-yl)piperidine-4-carboxylic acid] showed an IC50 of 500 to 2000 nM.
`COCCN(C)c1ccc(-c2ncc(CCC(F)(F)F)nc2N2CCC(C(=O)O)CC2)cc1` [Compound 104, 1-(3-(4-((2-methoxyethyl)(methyl)amino)phenyl)-6-(3,3,3-trifluoropropyl)pyrazin-2-yl)piperidine-4-carboxylic acid] gave an IC50 of 500 to 2000 nM.
`O=C(O)C1CCN(c2nc(CCC(F)(F)F)cnc2-c2ccncc2)CC1` [Compound 105, 1-(3-(pyridin-4-yl)-6-(3,3,3-trifluoropropyl)pyrazin-2-yl)piperidine-4-carboxylic acid] showed an IC50 of over 2000 nM.
`CN(C)S(=O)(=O)N1CCN(c2nc(CCC(F)(F)F)cnc2-c2ccc3occc3c2)CC1` [Compound 106, 4-(3-(benzofuran-5-yl)-6-(3,3,3-trifluoropropyl)pyrazin-2-yl)-N,N-dimethylpiperazine-1-sulfonamide] was tested, and the IC50 was over 2000 nM.
In the case of `O=C(O)C1CCN(c2nc(CCCC(F)(F)F)cnc2-c2ccc3c(c2)CCO3)CC1` [Compound 107, 1-(3-(2,3-dihydrobenzofuran-5-yl)-6-(4,4,4-trifluorobutyl)pyrazin-2-yl)piperidine-4-carboxylic acid], the IC50 is reported as under 500 nM.
In the case of `O=C(O)C1CCN(c2nc(CCCC(F)(F)F)cnc2-c2ccc3c(c2)OCO3)CC1` [Compound 108, 1-(3-(benzo[d][1,3]dioxol-5-yl)-6-(4,4,4-Trifluorobutyl)Pyrazin-2-yl)piperidine-4-carboxylic acid], the IC50 is reported as under 500 nM.
In the case of `O=C(O)C1CCN(c2nc(CCCC(F)(F)F)cnc2-c2ccc3ncoc3c2)CC1` [Compound 109, 1-(3-(benzo[d]oxazol-6-yl)-6-(4,4,4-trifluorobutyl)pyrazin-2-yl)piperidine-4-carboxylic acid], the IC50 is reported as 500 to 2000 nM.
Compound `O=C(O)C1CCN(c2nc(CCCC(F)(F)F)cnc2-c2ccc3c(c2)OCCO3)CC1` [Compound 110, 1-(3-(2,3-dihydrobenzo[b][1,4]dioxin-6-yl)-6-(4,4,4-trifluorobutyl)pyrazin-2-yl)piperidine-4-carboxylic acid] has an IC50 of 500 to 2000 nM.
Compound `O=C(O)C1CCN(c2nc(CCCC(F)(F)F)cnc2-c2ccc(OCC3CC3)cc2)CC1` [Compound 111, 1-(3-(4-(cyclopropylmethoxy)phenyl)-6-(4,4,4-trifluorobutyl)pyrazin-2-yl)piperidine-4-carboxylic acid] has an IC50 of under 500 nM.
`O=C(O)C1CCN(c2nc(CCCC(F)(F)F)cnc2-c2ccc3c(c2)CCCO3)CC1` [Compound 112, 1-(3-(chroman-6-yl)-6-(4,4,4-trifluorobutyl)pyrazin-2-yl)piperidine-4-carboxylic acid] gave an IC50 of 500 to 2000 nM.
`O=C(O)C1CCN(c2nc(CCCC(F)(F)F)cnc2-c2ccc(OC3CC3)cc2)CC1` [Compound 113, 1-(3-(4-cyclopropoxyphenyl)-6-(4,4,4-trifluorobutyl)pyrazin-2-yl)piperidine-4-carboxylic acid] was tested, and the IC50 was 500 to 2000 nM.
In the case of `O=C(O)C1CCN(c2nc(CCCC(F)(F)F)cnc2-c2ccc3c(c2)NCCO3)CC1` [Compound 114, 1-(3-(3,4-dihydro-2H-benzo[b][1,4]oxazin-6-y)-6-(4,4,4-trifluorobutyl)pyrazin-2-yl)piperidine-4-carboxylic acid], the IC50 is reported as 500 to 2000 nM.
`O=C1COc2ccc(-c3ncc(CCCC(F)(F)F)nc3N3CCC(C(=O)O)CC3)cc2N1` [Compound 115, 1-(3-(3-oxo-3,4-dihydro-2H-benzo[b][1,4]oxazin-6-yl)-6-(4,4,4-trifluorobutyl)pyrazin-2-yl)piperidine-4-carboxylic acid] showed an IC50 of over 2000 nM.
Compound `O=C(O)C1CCN(c2nc(CCCC(F)(F)F)cnc2-c2cnc3occc3c2)CC1` [Compound 116, 1-(3-(furo[2,3-b]pyridin-5-yl)-6-(4,4,4-trifluorobutyl)pyrazin-2-yl)piperidine-4-carboxylic acid] has an IC50 of under 500 nM.
`COCCOCCOc1ccc(-c2ncc(CCCC(F)(F)F)nc2N2CCC(C(=O)O)CC2)cc1` [Compound 117, 1-(3-(4-(2-(2-methoxyethoxy)ethoxy)phenyl)-6-(4,4,4-trifluorobutyl)pyrazin-2-yl)piperidine-4-carboxylic acid] was tested, and the IC50 was 500 to 2000 nM.
In the case of `COCCOCCCc1cnc(-c2cc(F)c3occc3c2)c(N2CCC(C(=O)O)CC2)n1` [Compound 118, 1-(3-(7-fluorobenzofuran-5-yl)-6-(3-(2-methoxyethoxy)propyl)pyrazin-2-yl)piperidine-4-carboxylic acid], the IC50 is reported as 500 to 2000 nM.
`O=C(O)C1CCN(c2nc(CCC(F)(F)F)cnc2-c2ccc3c(c2)CCO3)CC1` [Compound 119, 1-(3-(2,3-dihydrobenzofuran-5-yl)-6-(3,3,3-trifluoropropyl)pyrazin-2-yl)piperidine-4-carboxylic acid] was tested, and the IC50 was under 500 nM.
In the case of `O=C(O)C1CCN(c2nc(CCC(F)(F)F)cnc2-c2ccc3c(c2)OCO3)CC1` [Compound 120, 1-(3-(benzo[d][1,3]dioxol-5-yl)-6-(3,3,3-trifluoropropyl)pyrazin-2-yl)piperidine-4-carboxylic acid], the IC50 is reported as under 500 nM.
With `O=C(O)C1CCN(c2nc(CCC(F)(F)F)cnc2-c2ccc3occc3c2)CC1` [Compound 121, 1-(3-(benzofuran-5-yl)-6-(3,3,3-trifluoropropyl)pyrazin-2-yl)piperidin-4-carboxylic acid] the IC50 was under 500 nM.
With `O=C(O)C1CCN(c2nc(CCC(F)(F)F)cnc2-c2ccc3c(c2)OCCO3)CC1` [Compound 122, 1-(3-(2,3-dihyrobenzo[b][1,4]dioxin-6-yl)-6-(3,3,3-trifluoropropyl)pyrazin-2-yl)piperidine-4-carboxylic acid] the IC50 was 500 to 2000 nM.
In the case of `O=C(O)C1CCN(c2nc(CCCC(F)(F)F)cnc2-c2ccc3occc3c2)CC1` [Compound 123, 1-(3-(benzofuran-5-yl)-6-(4,4,4-trifluorobutyl)pyrazin-2-yl)piperidine-4-carboxylic acid], the IC50 is reported as under 500 nM.
Work on `O=C(O)C1CCN(c2nc(CCC(F)(F)C(F)(F)F)cnc2-c2ccc3occc3c2)CC1` [Compound 124, 1-(3-(benzofuran-5-yl)-6-(3,3,4,4,4-pentafluorobutyl)pyrazin-2-yl)piperidine-4-carboxylic acid] yielded an IC50 of under 500 nM.
`COCCOc1ccc(-c2ncc(CCC(F)(F)C(F)(F)F)nc2N2CCC(C(=O)O)CC2)cc1` [Compound 125, 1-(3-(4-(2-methoxyethoxy)phenyl)-6-(3,3,4,4,4-pentafluorobutyl)pyrazin-2-yl)piperidine-4-carboxylic acid] gave an IC50 of 500 to 2000 nM.

Same assay, conditions: 60 minute assay; HEK293T cells stably expressing GLUT9B and transiently A. oryzae uricase; uric acid 0.3 mM, 37° C.; read-out: 60 min IC50
`O=C(O)C1CCN(c2nc(CCCOC(F)(F)F)cnc2-c2cc(F)c3occc3c2)CC1` [Compound 96, 1-(3-(7-fluorobenzofuran-5-yl)-6-(3-(trifluoromethoxy)propyl)pyrazin-2-yl)piperidine-4-carboxylic acid] showed an IC50 of under 500 nM.
Work on `O=C(O)C1CCN(c2nc(CCCC(F)(F)F)cnc2-c2ccc3c(c2)OCO3)CC1` [Compound 108, 1-(3-(benzo[d][1,3]dioxol-5-yl)-6-(4,4,4-Trifluorobutyl)Pyrazin-2-yl)piperidine-4-carboxylic acid] yielded an IC50 of under 500 nM.
